Data as given in article PMC3685283 (Molecular cancer research : MCR, 2012).

Legend:
[1] = biological target: Smoothened (SMO) (Homo sapiens, UniProt Q99835); assay: BODIPY-cyclopamine competition binding in SMO-transfected HeLa cells; type: cell-based
[2] = biological target: Smoothened (SMO) (Mus musculus, UniProt P56726); assay: as above; type: cell-based
Chain of Smoothened (SMO) (Mus musculus, UniProt P56726) (P56726 33-793): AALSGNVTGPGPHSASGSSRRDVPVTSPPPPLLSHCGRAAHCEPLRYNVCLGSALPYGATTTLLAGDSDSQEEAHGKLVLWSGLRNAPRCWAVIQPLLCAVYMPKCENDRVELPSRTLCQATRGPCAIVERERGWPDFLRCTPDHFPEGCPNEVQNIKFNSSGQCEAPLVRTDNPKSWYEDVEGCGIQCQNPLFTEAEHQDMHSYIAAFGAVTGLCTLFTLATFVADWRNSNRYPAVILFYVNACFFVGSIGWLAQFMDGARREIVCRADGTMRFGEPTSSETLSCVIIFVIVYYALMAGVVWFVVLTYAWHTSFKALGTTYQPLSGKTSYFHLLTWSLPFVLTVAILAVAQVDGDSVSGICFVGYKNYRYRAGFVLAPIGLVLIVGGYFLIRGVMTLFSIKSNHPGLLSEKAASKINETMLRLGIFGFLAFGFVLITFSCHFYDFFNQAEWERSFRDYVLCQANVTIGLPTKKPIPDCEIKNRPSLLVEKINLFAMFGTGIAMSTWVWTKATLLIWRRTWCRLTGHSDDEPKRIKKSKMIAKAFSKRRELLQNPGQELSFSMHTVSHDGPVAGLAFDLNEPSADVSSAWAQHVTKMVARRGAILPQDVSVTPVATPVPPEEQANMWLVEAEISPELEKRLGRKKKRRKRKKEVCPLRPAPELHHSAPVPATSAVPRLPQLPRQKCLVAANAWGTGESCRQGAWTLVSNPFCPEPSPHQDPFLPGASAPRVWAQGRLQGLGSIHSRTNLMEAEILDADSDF

Chain of Smoothened (SMO) (Homo sapiens, UniProt Q99835) (Q99835 28-787): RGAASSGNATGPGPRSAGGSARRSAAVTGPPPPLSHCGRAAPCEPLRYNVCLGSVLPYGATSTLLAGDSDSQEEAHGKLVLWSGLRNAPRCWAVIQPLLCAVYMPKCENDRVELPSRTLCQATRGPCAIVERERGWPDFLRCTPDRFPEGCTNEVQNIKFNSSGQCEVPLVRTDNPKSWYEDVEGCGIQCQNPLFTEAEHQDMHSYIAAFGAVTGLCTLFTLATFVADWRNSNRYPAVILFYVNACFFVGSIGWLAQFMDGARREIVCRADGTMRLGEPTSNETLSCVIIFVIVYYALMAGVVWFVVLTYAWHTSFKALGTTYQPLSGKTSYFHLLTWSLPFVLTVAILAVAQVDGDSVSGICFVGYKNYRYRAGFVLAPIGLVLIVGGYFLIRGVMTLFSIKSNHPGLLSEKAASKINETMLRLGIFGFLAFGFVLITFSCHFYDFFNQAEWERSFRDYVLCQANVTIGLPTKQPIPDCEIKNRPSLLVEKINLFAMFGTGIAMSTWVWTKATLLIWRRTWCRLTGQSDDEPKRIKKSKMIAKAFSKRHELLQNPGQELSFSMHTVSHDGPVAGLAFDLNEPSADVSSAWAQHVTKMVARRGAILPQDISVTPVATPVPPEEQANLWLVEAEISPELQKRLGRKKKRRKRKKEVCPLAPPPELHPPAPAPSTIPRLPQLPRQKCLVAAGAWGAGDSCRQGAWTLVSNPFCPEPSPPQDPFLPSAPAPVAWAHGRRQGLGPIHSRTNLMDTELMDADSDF

## CC1=C2C[C@H]3[C@@H](CC=C4CC(=O)CC[C@@]43C)[C@@H]2CC[C@]12O[C@@H]1C[C@H](C)CN(CCNC(=O)CCCCCNC(=O)CCc3ccccc3)[C@H]1[C@H]2C [KAAD-cyclopamine]
[1]
  Kd: 0.8 nM
[2]
  Kd: 2 nM
